How the values were obtained:
[1] = tested on: intracellular cAMP, HEK-293 cells; experiment: Forskolin titration in HEK-293 cells transfected with CPM-hRL/RIIβB biosensor (201325.78.E5); assay type: cell-based
Description: 100 μl HEK-293 cells were plated in a 96 well plate and grown to 70-90% confluency in DMEM/F12 with HEPES buffer (Invitrogen) with 10% FBS at 37° C. with 5% CO2.
Cells were transfected with TransIt®-LT1 Reagent (MIRUS) using 0.3 μl TransIt®-LT1 reagent and 0.15 μg DNA (CPM-hRL/RIIβB cAMP biosensor with X/Y peptide linker lengths of (X=4, Y=20) (201325.78.E5)) per well of a 96-well plate. Cells were allowed to grow overnight and were assayed the next day.
Approximately 1 day after transfection, cells were removed from incubator and equilibrated to room temperature. A 10 μl aliquot of 600 μM EnduRen Live Cell Substrate (Promega) was added to a total of 100 μl of cell culture to give a final concentration of approximately 60 μM coelentrazine. Cells were then incubated at room temperature for at least 15 minutes. After 15 minutes at room temperature, baseline measurements of luminescence were measured using a 96-well Veritas Luminometer (Turner) at 0.5 seconds per well. Cells were then induced with 0.025 μM-250 μM forskolin (Sigma) or not induced (0.1% DMSO (Sigma)) and luminescence was measured continuously for about 30 minutes (FIG. 19). Samples were measured in sets of 5 replicates per concentration of forskolin. EC50s were calculated using GraphPad Prism for Windows, Version 4.

[2] = tested on: intracellular cAMP concentration, HEK 293 cells; experiment: Intracellular cAMP changes in HEK 293 cells transiently transfected with CPM-FF Luc/RIIβB (pBFB141); assay type: cell-based; details: HEK 293 cells, pBFB141; 10 μM isopreterenol or 50 mM forskolin (so in the source), treatment alone, room temperature
Description: Cells were cultured in 60 ml in DMEM/F12 with HEPES buffer (Invitrogen) with 10% FBS at 37° C. with 5% CO2.
The ORF encoding the CPM-FF Luc/RIIβB based cAMP biosensor with X/Y linker lengths of (X=10, Y=0) was transferred to Flexi vector pF4K (Flexi vector system; Promega Corp.). The resultant plasmid construct (pBFB141) utilizes an upstream CMV promoter for expression of the associated cAMP biosensor in mammalian cells.
Cells were transfected with TransIt®-LT1 Reagent (MIRUS) using 0.3 μl TransIt®-LT1 reagent and 0.15 μg DNA per well of a 96 well plate. Cells were allowed to grow overnight and were assayed the next day.
Approximately 1 day after transfection, cells were removed from the incubator and equilibrated to room temperature. A 5 μl aliquot of 100 mM Luciferin EF was added to a total of 90 μl of cell culture plus transfection reagent to give a final concentration of approximately 5 mM luciferin. Cells were then incubated at room temperature for at least 90 minutes. After 90 minutes at room temperature, baseline measurements of luminescence were measured using a 96 well Veritas Luminometer (Turner Biosystems; integration time of 0.5 seconds per well). Cells were then induced with 10 μM isopreterenol (CalBiochem), 50 mM forskolin (Sigma) or not induced (0.1% DMSO, Sigma) and luminescence was measured continuously for about 30 minutes. After 30 minutes, […] (Sigma) was added to cells with isopreterenol and 0.1% DMSO was added to all other samples. Luminescence was then measured continuously for the next 30 minutes. A final addition of 50 μM forskolin was added to the isopreterenol/propranolol sample and 0.1% DMSO was added to all other samples. Luminescence was then measured continuously for the next half hour. Samples were measured in sets of 12 replicates. 10× stocks of isopreterenol, propranolol, forskolin and DMSO were made in 1×PBS (Invitrogen).

[3] = tested on: intracellular cAMP concentration, HEK 293 cells; experiment: Intracellular cAMP changes in HEK293 cells with CPM-hRL Luc/RIIβB biosensors (isopreterenol, propranolol, forskolin); assay type: cell-based
Description: Cells were cultured in 2 mL DMEM/F12 with HEPES buffer (Invitrogen) and 10% FBS at 37° C. with 5% CO2 in a 6 well plate. Three of the constructs described in Example XVII were used to detect intracellular changes of cAMP concentrations. The constructs used were: pBFB277, pBFB279 and pBFB287. HEK293 cells stably expressing CPM91-hRL/RIIβB (ORF derived from 201325.44.H6 were also used in these experiments. HEK293 cells were transfected with TransIt®-LT1 Reagent (MIRUS) using 6 μL TransIt®-LT1 reagent and 2 μg DNA (pBFB277, pBFB279 and pBFB287) per well of a 6 well plate. Cells were allowed to grow overnight and were assayed the next day. Approximately 1 day after transfection, cells were trypsinized, resuspended in fresh DMEM/F12 with HEPES buffer (Invitrogen) with 1% FBS and plated in a 96 well plate at approximately 10,000 cells per well. Alternatively, a HEK293 cell line stably expressing CP91-hRL/RIIβB was plated in a 96 well plate at approximately 10,000 cells per well. A 10 μL aliquot of 600 μM EnduRen was added to a total of 100 μL of cell culture to give a final concentration of approximately […]. Cells were then incubated at 37° C. with 5% CO2. After 5 hours, the plate was removed from the incubator and allowed to cool to room temperature for at least 20 minutes. After 20 minutes, baseline measurements of luminescence were measured using a 96 well Veritas Luminometer (Turner Biosystems; integration time of 0.5 seconds per well). Cells were then induced with 10 μM isopreterenol (CalBiochem), 50 μM forskolin (Sigma) or not induced (0.1% DMSO, Sigma) and luminescence was measured continuously for about 30 minutes. After 30 minutes, 10 μM propranolol (Sigma) was added to cells already induced with isopreterenol and 0.1% DMSO was added to all other samples. Luminescence was then measured continuously for the next 30 minutes. A final addition of 50 μM forskolin was added to the isopreterenol/propranolol sample and 0.1% DMSO was added to all other samples. Luminescence was then measured continuously for the next half hour. Samples were measured in sets of 4-6 replicates. 10× stocks of isopreterenol, propranolol, forskolin and DMSO were made in DMEM/F12 with HEPES buffer (Invitrogen) and 1% FBS.

[4] = tested on: intracellular cAMP, HEK293 cells; experiment: HEK293 cells stably expressing CP234-Luc/RIIB, forskolin stimulation and Z′ measurement; assay type: cell-based
Description: The ORF from pBFB135, under the class of biosensors called “CPM-FF Luc/RIIβB,” was used to generate the transient and stable cells lines described below. These cell lines are called “CP234-Luc/RIIB,” “cAMP LucSensor,” “LucSensor,” and “FF cAMP Sensor.”
HEK293 cells stably expressing CP234-Luc/RIIB (ORF derived from pBFB135) were resuspended in complete media and mixed with 5 mM luciferin-EF. Cells were plated at 1×10^5 cells per well in a 96 well plate and equilibrated to room temperature for 1.5 hours. After stimulation with forskolin, luminescence was measured at 15 minutes using a GloMax™ Luminometer.
For a Z′ measurement, 2×10^4 cells were aliquoted per well to a 384-well plate and equilibrated using a similar protocol. Half the plate was induced with […], whereas the other half remained uninduced. Luminescence was captured 15 minutes after induction using a TECAN GENios Pro™ luminometer. The fold of induction was 6.1 and Z′ was 0.83. Since assays with Z′ greater than 0.5 are considered good quality for high-throughput screening (HTS), the cAMP biosensor-based assay is amenable for HTS.

[5] = target: T1, Akt1/PKB alpha recombinant enzyme (Homo sapiens, UniProt P31749); experiment: In vitro serine/threonine kinase sensor assay with Akt1/PKB; assay type: biochemical; details: 10 ng Akt1/PKB alpha, 30° C., 20 minutes
T1 construct: purchased Upstate Biotechnology
Description: Constructs pBFB335, 336, 338, 339, 340, 417, 418, 419, 422, 22 and 8 were tested in vitro using TNT® T7 Coupled Reticulocyte Lysate System (Promega Corp.). […] Luminescence was measured using a Turner 20/20N luminometer (Turner Biosystems; 1 second integration time). All samples were measured in triplicate. […]
The protocol for other Serine/Threonine kinase sensors is identical to the one above except that for the CPM hRL Luc samples, 5 μL of sample are added to a 96 well plate+5 μL 2× Renilla lysis buffer without detergents (150 mM HEPES, 100 mM Thiourea) and 100 μL Renilla Assay Reagent (Promega Corp.) is added by injectors using a Veritas Microplate Luminometer and luminescence is measured (Turner Biosystems; Bright-Glo program; 3 second integration time). FF Luc samples are measured by adding 100 μL of Luciferase Assay Reagent (LAR; Promega Corp.), to 5 μL of sample in a 96 well plate, by injectors using a Veritas Microplate Luminometer and luminescence measured (Turner Biosystems; Bright-Glo program; 3 second integration time).

[6] = CPM-FF Luc calcium biosensors, 10 mM CaCl2 or 10 mM EDTA plus 2.5 mM EGTA; assay type: biochemical; details: 10 mM CaCl2 vs 10 mM EDTA plus 2.5 mM EGTA
Description: Calcium biosensors were prepared by fusing sequences encoding a circularly permuted firefly luciferase having engineered N- and C-termini at residues 234 and 233, respectively, to sequences encoding protein domains that bind calcium. One type of calcium biosensor utilized a mutant of fast chicken skeletal muscle troponin C (TnC) (amino acids 15-163; N109D, D111N, N145D, D147N; Genbank NM_205450) [Met-(Luc2.0 234-544)-(Linker X)-(TnC)-(Linker Y)-(Luc2.0 4-233)-Val], and the second type of calcium biosensor utilized human calmodulin (CaM) (amino acids 5-148; Genbank BC005137) [Met-Luc+ (234-544)-(Linker X)-human Calmodulin (5-148)-(Linker Y)-Luc+ (4-233)].
CPM-FF Luc/TnC and CPM-FF Luc/CaM constructs with varying X/Y peptide linker lengths were expressed in vitro using the T7 Coupled Reticulocyte Lysate System (pBFB225, pBFB226, pBFB227, pBFB7; FIG. 24). Reactions were then supplemented with 10 mM CaCl2 or 10 mM EDTA plus 2.5 mM EGTA.

T1 sequence (P31749 whole entry): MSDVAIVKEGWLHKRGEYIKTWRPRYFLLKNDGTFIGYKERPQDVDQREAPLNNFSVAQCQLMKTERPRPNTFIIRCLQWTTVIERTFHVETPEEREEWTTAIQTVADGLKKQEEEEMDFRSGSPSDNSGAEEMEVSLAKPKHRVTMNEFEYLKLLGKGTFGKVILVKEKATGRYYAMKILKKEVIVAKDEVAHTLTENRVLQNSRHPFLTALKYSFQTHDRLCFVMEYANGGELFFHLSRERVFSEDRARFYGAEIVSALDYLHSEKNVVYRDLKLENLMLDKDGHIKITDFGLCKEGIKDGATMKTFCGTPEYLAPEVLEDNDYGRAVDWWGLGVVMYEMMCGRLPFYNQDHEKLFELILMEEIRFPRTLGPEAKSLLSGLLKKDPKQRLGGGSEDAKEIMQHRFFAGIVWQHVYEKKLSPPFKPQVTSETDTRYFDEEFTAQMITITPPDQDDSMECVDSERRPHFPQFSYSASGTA

| Compound | light output above that of untreated cells at maximal levels ([1]; CPM-hRL/RIIβB X=4, Y=20 (201325.78.E5)) [fold] | EC50 ([1]; Homo sapiens, HEK293, CPM-hRL/RIIβB X=4, Y=20 (201325.78.E5), read-out: EC50 of the forskolin response) [nM] | increase in light output from transfected cells [2] | increase in light output ([3]; HEK293 cells stably expressing CPM91-hRL/RIIβB, isopreterenol and forskolin treatment) | increase in light output from transfected cells ([3]; HEK 293 transiently transfected with CPM-hRL Luc/RIIβB (X=4, Y=20) constructs, 10 μM isopreterenol or 50 μM forskolin alone) | fold of induction ([4]; 384-well plate, induced with 20 forskolin (so in the source), 15 minutes) [fold] | EC50 ([4]; Homo sapiens, 0.25 h, HEK293 stably expressing CP234-Luc/RIIB, 96 well, luminescence at 15 minutes) [nM] | decrease in luminescence plus Akt1/PKB as compared to no Akt1/PKB [5] | fold reduction in luminescence activity in the presence of calcium [6] |
| --- | --- | --- | --- | --- | --- | --- | --- | --- | --- |
| C=C[C@@]1(C)CC(=O)[C@]2(O)[C@@]3(C)[C@@H](O)CCC(C)(C)[C@@H]3[C@H](O)[C@H](OC(C)=O)[C@@]2(C)O1 [forskolin] | 3.6 | 59 | approximately 2 fold | about 5 fold | approximately 2 fold | 6.1 | 360 |  |  |
| pBFB22: wild-type firefly luciferase control |  |  |  |  |  |  |  | did not change | No response |

From patent publication US10077433B2, “Permuted and nonpermuted luciferase biosensors” (PROMEGA CORPORATION, priority 2006, dated 2018)
